In PubChem BioAssay AID1963966 (Molecular Pharmacology Branch, DTP, NCI, 2024):
Values joined by “and” are separate entries in the source; they are usually repeats but may differ in a detail not shown here. Identical values can stand only once.

Tested on: 935938-334-R-J1-PDC spheroids with HUVEC/MSC, viability
Assay: Anticancer human tumor 935938-334-R-J1-PDC patient-derived small intestine adenocarcinoma cell line growth inhibition [PI3K]
Details: for viability, T/C: stronger effect = lower value
Procedure, shortened: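 Tumor cells were combined with HUVEC and MSCs into spheroids, then dosed with PI3K-inhibitor combinations over half-log ranges capped near clinical Cmax or 10 microM.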

[1] = curve of first compound, second compound 0.00316 µM
[2] = curve of first compound, second compound 0.01 µM
[3] = curve of first compound, second compound 0.0316 µM
[4] = curve of first compound, second compound 0.1 µM
[5] = curve of first compound, second compound 0.316 µM
[6] = curve of first compound, second compound 1 µM
[7] = second compound 0.00316 µM, first compound 0.0316 µM
[8] = second compound 0.00316 µM, first compound 0.1 µM
[9] = second compound 0.00316 µM, first compound 0.316 µM
[10] = second compound 0.00316 µM, first compound 1 µM
[11] = second compound 0.00316 µM, first compound 3.16 µM
[12] = second compound 0.00316 µM, first compound 10 µM
[13] = second compound 0.01 µM, first compound 0.0316 µM
[14] = second compound 0.01 µM, first compound 0.1 µM
[15] = second compound 0.01 µM, first compound 0.316 µM
[16] = second compound 0.01 µM, first compound 1 µM
[17] = second compound 0.01 µM, first compound 3.16 µM
[18] = second compound 0.01 µM, first compound 10 µM
[19] = second compound 0.0316 µM, first compound 0.0316 µM
[20] = second compound 0.0316 µM, first compound 0.1 µM
[21] = second compound 0.0316 µM, first compound 0.316 µM
[22] = second compound 0.0316 µM, first compound 1 µM
[23] = second compound 0.0316 µM, first compound 3.16 µM
[24] = second compound 0.0316 µM, first compound 10 µM
[25] = second compound 0.1 µM, first compound 0.0316 µM
[26] = second compound 0.1 µM, first compound 0.1 µM
[27] = second compound 0.1 µM, first compound 0.316 µM
[28] = second compound 0.1 µM, first compound 1 µM
[29] = second compound 0.1 µM, first compound 3.16 µM
[30] = second compound 0.1 µM, first compound 10 µM
[31] = second compound 0.316 µM, first compound 0.0316 µM
[32] = second compound 0.316 µM, first compound 0.1 µM
[33] = second compound 0.316 µM, first compound 0.316 µM
[34] = second compound 0.316 µM, first compound 1 µM
[35] = second compound 0.316 µM, first compound 3.16 µM
[36] = second compound 0.316 µM, first compound 10 µM
[37] = second compound 1 µM, first compound 0.0316 µM
[38] = second compound 1 µM, first compound 0.1 µM
[39] = second compound 1 µM, first compound 0.316 µM
[40] = second compound 1 µM, first compound 1 µM
[41] = second compound 1 µM, first compound 3.16 µM
[42] = second compound 1 µM, first compound 10 µM
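Also: compound exposure lasted seven days before viability was read.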
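For viability, T/C in this document: percent of vehicle DMSO treated spheroid viability so 100% = untreated.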

Molecule `CC1(C)CCC(CN2CCN(c3ccc(C(=O)NS(=O)(=O)c4ccc(NCC5CCOCC5)c([N+](=O)[O-])c4)c(Oc4cnc5[nH]ccc5c4)c3)CC2)=C(c2ccc(Cl)cc2)C1` + CC(Nc1ccc2c(c1)OCCn1cc(N3C(=O)OCC3C(F)F)nc1-2)C(N)=O has an IC50 [1] of 6.27 µM, an IC50 [2] of 6 µM and an IC50 [3] of 5.41 µM. The IC50 [4] was 6 µM, the IC50 [5] was 5.04 µM and the IC50 [6] was 3.21 µM. The viability, T/C [7] was 85.9%, the viability, T/C [8] was 78.6% and the viability, T/C [9] was 106%. The viability, T/C [10] was 115%, the viability, T/C [11] was 90.3% and the viability, T/C [12] was 22.5%. For the same molecule, the viability, T/C [13] was 88.7%, the viability, T/C [14] was 95.1% and the viability, T/C [15] was 120%. It also gave a viability, T/C [16] of 83.1%, a viability, T/C [17] of 80.8% and a viability, T/C [18] of 26.8%. It also gave a viability, T/C [19] of 90.5%, a viability, T/C [20] of 78.8% and a viability, T/C [21] of 76.2%. It also gave a viability, T/C [22] of 103%, a viability, T/C [23] of 74.4% and a viability, T/C [24] of 22.1%. It also gave a viability, T/C [25] of 88.5%, a viability, T/C [26] of 90.9% and a viability, T/C [27] of 84.5%. The viability, T/C [28] was 82%, the viability, T/C [29] was 100% and the viability, T/C [30] was 18.6%. It also gave a viability, T/C [31] of 69.6%, a viability, T/C [32] of 71.3% and a viability, T/C [33] of 76.3%. It also gave a viability, T/C [34] of 68.8%, a viability, T/C [35] of 72.7% and a viability, T/C [36] of 18.7%. The viability, T/C [37] was 62.6%, the viability, T/C [38] was 59.7% and the viability, T/C [39] was 57%. It also gave a viability, T/C [40] of 65.2%, a viability, T/C [41] of 47.6% and a viability, T/C [42] of 20.3%.
In the case of `CC(=O)c1c(C)c2cnc(Nc3ccc(N4CCNCC4)cn3)nc2n(C2CCCC2)c1=O`, the viability, T/C (compound 0.001 µM) is reported as 93.6% [middle of 4 runs], the viability, T/C (compound 0.00316 µM) is reported as 89.5% [middle of 4 runs] and the viability, T/C (compound 0.01 µM) is reported as 87.7% [middle of 4 runs]. The viability, T/C (compound 0.0316 µM) was 92.3% [middle of 4 runs] and the IC50 (curve of compound) was > 0.1 µM and 0.0566 µM.
For `CC(C)NCC(C(=O)N1CCN(c2ncnc3c2C(C)CC3O)CC1)c1ccc(Cl)cc1` (centres undefined) + COc1c(OCCCN2CCOCC2)ccc2c3n(c(=NC(=O)c4cnc(N)nc4)nc12)CCN3, the IC50 [1] was 5.66 µM, the IC50 [2] was 2.73 µM and the IC50 [3] was 1.31 µM. The IC50 [4] was under 0.0316 µM, the IC50 [5] was under 0.0316 µM and the IC50 [6] was under 0.0316 µM. The viability, T/C [7] was 94.5%, the viability, T/C [8] was 99% and the viability, T/C [9] was 84.8%. The viability, T/C [10] was 65.5%, the viability, T/C [11] was 62.5% and the viability, T/C [12] was 41.5%. The viability, T/C [13] was 85.5%, the viability, T/C [14] was 106% and the viability, T/C [15] was 82%. The viability, T/C [16] was 61.1%, the viability, T/C [17] was 54.5% and the viability, T/C [18] was 39.8%. For the same molecule, the viability, T/C [19] was 84.2%, the viability, T/C [20] was 67.4% and the viability, T/C [21] was 68%. The viability, T/C [22] was 48.5%, the viability, T/C [23] was 45.5% and the viability, T/C [24] was 29.5%. For the same molecule, the viability, T/C [25] was 48.3%, the viability, T/C [26] was 49.4% and the viability, T/C [27] was 39.3%. It also gave a viability, T/C [28] of 44.3%, a viability, T/C [29] of 40.8% and a viability, T/C [30] of 30.4%. It also gave a viability, T/C [31] of 30.6%, a viability, T/C [32] of 40.4% and a viability, T/C [33] of 29.8%. The viability, T/C [34] was 33.7%, the viability, T/C [35] was 26.7% and the viability, T/C [36] was 30.3%. For the same molecule, the viability, T/C [37] was 36.6%, the viability, T/C [38] was 34.7% and the viability, T/C [39] was 37%. The viability, T/C [40] was 34.2%, the viability, T/C [41] was 30.1% and the viability, T/C [42] was 33.2%.
